Measured values from publication PMC8330742, “New benzothieno[2,3-c]pyridines as non-steroidal CYP17 inhibitors: design, synthesis, anticancer screening, apoptosis induction, and in silico ADME profile studies” (Journal of Enzyme Inhibition and Medicinal Chemistry, 2021).
Read-outs that look alike come from different tables or passages of the source.

Key:
OVCAR-5 = experiment: NCI-60 SRB screen; format: cell-based, human; conditions: Homo sapiens, single dose 10^−5 M, read-out: Growth inhibition (%)
SNB-75 = experiment: NCI-60 SRB screen; format: cell-based, human; conditions: Homo sapiens, single dose 10^−5 M, read-out: Growth inhibition (%)
RPMI-8226 = experiment: NCI-60 SRB screen; format: cell-based; conditions: Homo sapiens, single dose 10^−5 M, read-out: Growth inhibition (%)
SNB-19 = experiment: NCI-60 SRB screen; format: cell-based; conditions: Homo sapiens, single dose 10^−5 M, read-out: Growth inhibition (%)
HOP-92 = experiment: NCI-60 SRB screen; format: cell-based, human; conditions: Homo sapiens, single dose 10^−5 M, read-out: Growth inhibition (%)
U251 = experiment: NCI-60 SRB screen; format: cell-based, human; conditions: Homo sapiens, U-251, single dose 10^−5 M, read-out: Growth inhibition (%)
SF-539 = experiment: NCI-60 SRB screen; format: cell-based, human; conditions: Homo sapiens, single dose 10^−5 M, read-out: Growth inhibition (%)
A498 = experiment: NCI-60 SRB screen; format: cell-based, human; conditions: Homo sapiens, single dose 10^−5 M, read-out: Growth inhibition (%)
CAKI-1 = experiment: NCI-60 SRB screen; format: cell-based, human; conditions: Homo sapiens, single dose 10^−5 M, read-out: Growth inhibition (%)
PC-3 = experiment: NCI-60 SRB screen; format: cell-based, human; conditions: Homo sapiens, single dose 10^−5 M, read-out: Growth inhibition (%)
DU-145 = experiment: NCI-60 SRB screen; format: cell-based, human; conditions: Homo sapiens, single dose 10^−5 M, read-out: Growth inhibition (%)
BT-549 = experiment: NCI-60 SRB screen; format: cell-based, human; conditions: Homo sapiens, single dose 10^−5 M, read-out: Growth inhibition (%)
T-47D = experiment: NCI-60 SRB screen; format: cell-based, human; conditions: Homo sapiens, T47D, single dose 10^−5 M, read-out: Growth inhibition (%)
MDA-MB-468 = experiment: NCI-60 SRB screen; format: cell-based, human; conditions: Homo sapiens, single dose 10^−5 M, read-out: Growth inhibition (%)
MCF7 = experiment: NCI-60 SRB screen; format: cell-based, human; conditions: Homo sapiens, read-out: Growth inhibition (%)
MDA-MB-231/ATCC = experiment: NCI-60 SRB screen; format: cell-based, human; conditions: Homo sapiens, single dose 10^−5 M, read-out: Growth inhibition (%)
[1] = single dose 10^−5 M, MCF-7, Breast cancer
[2] = HOP-92, Non-small cell lung carcinoma

Compound	inhibition at 10 µM (OVCAR-5; OVCAR-5) [%]	inhibition at 10 µM (SNB-75; SNB-75) [%]	inhibition at 10 µM (RPMI-8226; RPMI-8226) [%]	inhibition at 10 µM (SNB-19; SNB-19) [%]	melting point [°C]	inhibition at 10 µM (HOP-92; HOP-92) [%]	inhibition at 10 µM (U251; U251) [%]	inhibition at 10 µM (SF-539; SF-539) [%]	inhibition at 10 µM (A498; A498) [%]	inhibition at 10 µM (CAKI-1; CAKI-1) [%]	also measured
COc1ccc(C=C2Sc3c(F)cccc3C2=O)c(OC)c1 [Compound 2a, 2-(2,4-Dimethoxybenzylidene)-7-fluoro[1]benzothiophen-3(2H)-one]	-9.42	12.6	-8.46	-2.1	195 to 197	-8.14	-7.91	-0.64	-4.03	11.9	
O=C1C(=Cc2ccccc2[N+](=O)[O-])Sc2c(F)cccc21 [Compound 2c, 7-Fluoro-2-(2-nitrobenzylidene)[1]benzothiophen-3(2H)-one]		-1.55	30.6	14.2	170 to 172	-11.4	32.5	3.65	55.1	85.1	
COc1ccc(C2NC(=O)C(Cl)c3c2sc2c(F)cccc32)c(OC)c1 (stereo not drawn) [Compound 4a, 4-Chloro-1-(2,4-Dimethoxyphenyl)-8-fluoro-1,2-dihydro[1]benzothieno [2,3-c]pyridine-3(4H)-one]	-3.64	22.3	11.7	0.33	120 to 122	9.64	0.4	3.36	14.9	27.5	
COc1ccc(C2NC(=O)C(Cl)c3c2sc2c(F)cccc32)cc1 (stereo not drawn) [Compound 4b, 4-Chloro-8-fluoro-1-(4-methoxyphenyl)-1,2-dihydro[1]benzothieno[2,3-c] pyridine-3(4H)-one]	-12.9	22.8	7.32	7.47	154 to 156	16.4	21.1	15.8	11.1	17.7	
O=C1NC(c2ccccc2[N+](=O)[O-])c2sc3c(F)cccc3c2C1Cl (stereo not drawn) [Compound 4c, 4-Chloro-8-fluoro-1-(2-nitrophenyl)-1,2-dihydro[1]benzothieno[2,3-c] pyridine-3(4H)-one]	-2.88	11.7	5.9	-2.16	110 to 112	-11.2	8.82	3.36	-6.23	12.4	
O=C1NC(c2cccc([N+](=O)[O-])c2)c2sc3c(F)cccc3c2C1N1CCOCC1 (stereo not drawn) [Compound 6b, 8-Fluoro-4-morpholino-1(3-nitrophenyl)-1,2-dihydro[1]benzothieno[2,3-c]pyridin-3(4H)-one]	-6.35		14.4		250 to 251	13.3			13.5	23	inhibition at 10 µM (PC-3; PC-3): 10.4%; inhibition at 10 µM (DU-145; DU-145): -9.4%; inhibition at 10 µM (BT-549; BT-549): 1.66%; inhibition at 10 µM (T-47D): 15.4%; inhibition at 10 µM (MDA-MB-468; MDA-MB-468): -3.26%; inhibition at 10 µM (MCF7; MCF-7, single dose 10^−5 M): 10.3%; inhibition at 10 µM (MDA-MB-231/ATCC; MDA-MB-231, MDAMB231/ATCC): 7.92%
O=[N+]([O-])c1cccc(C2NC(Cl)=C(Cl)c3c2sc2c(F)cccc32)c1 (stereo not drawn) [Compound 7a, 3,4-Dichloro-8-fluoro-1-(3-nitrophenyl)-1,2-dihydro[1]benzothieno[2,3-c] pyridine]	3.21		11.5		120 to 122	14.7			3.36	18.8	inhibition at 10 µM (PC-3; PC-3): 3.11%; inhibition at 10 µM (DU-145; DU-145): -4.75%; inhibition at 10 µM (BT-549; BT-549): 0.77%; inhibition at 10 µM (T-47D): 17.7%; inhibition at 10 µM (MDA-MB-468; MDA-MB-468): -4.71%; inhibition at 10 µM (MCF7; MCF-7, single dose 10^−5 M): 5.05%; inhibition at 10 µM (MDA-MB-231/ATCC; MDA-MB-231, MDAMB231/ATCC): 8.09%
N#CC1=C(Cl)NC(c2cccc([N+](=O)[O-])c2)c2sc3c(F)cccc3c21 (stereo not drawn) [Compound 7b, 3-Chloro-4-cyano-8-fluoro-1-(3-nitrophenyl)-1,2-dihydro[1]benzothieno [2,3-c]pyridine]					140 to 142						inhibition at 10 µM (OVCAR-5; OVCAR-5, Ovarian cancer): -3.54%; inhibition at 10 µM (PC-3; PC-3, Prostate cancer): 3.5%; inhibition at 10 µM (DU-145; DU-145, Prostate cancer): -14.2%; inhibition at 10 µM (SNB-75; SNB-75, CNS cancer): 8.28%; inhibition at 10 µM (BT-549; BT-549, Breast cancer): -2.93%; inhibition at 10 µM (RPMI-8226; RPMI-8226, Leukaemia): 12.7%; inhibition at 10 µM (T-47D; Breast cancer): -9.14%; inhibition at 10 µM (SNB-19; SNB-19, CNS cancer): -0.67%; inhibition at 10 µM (MDA-MB-468; MDA-MB-468, Breast cancer): -7.25%; inhibition at 10 µM (MCF7; [1]): 8.22%; inhibition at 10 µM (HOP-92; [2]): 10.4%; inhibition at 10 µM (U251; U251, CNS cancer): -7.36%; inhibition at 10 µM (MDA-MB-231/ATCC; MDA-MB 231/ATCC, Breast cancer): 7.25%; inhibition at 10 µM (SF-539; SF-539, CNS cancer): 3.78%; inhibition at 10 µM (A498; A498, Renal cancer): 19.7%; inhibition at 10 µM (CAKI-1; CAKI-1, Renal cancer): 19.8%
O=[N+]([O-])c1cccc(C2NC(N3CCCCC3)=C(Cl)c3c2sc2c(F)cccc32)c1 (stereo not drawn) [Compound 8c, 4-Chloro-3-(piperidin-1-yl)-8-fluoro-1-(3-nitrophenyl)-1,2-dihydro [1]benzothieno[2,3-c]pyridine]					241 to 243						inhibition at 10 µM (OVCAR-5; OVCAR-5, Ovarian cancer): -1.61%; inhibition at 10 µM (PC-3; PC-3, Prostate cancer): 11.9%; inhibition at 10 µM (DU-145; DU-145, Prostate cancer): -12.5%; inhibition at 10 µM (SNB-75; SNB-75, CNS cancer): 22.4%; inhibition at 10 µM (BT-549; BT-549, Breast cancer): -10.5%; inhibition at 10 µM (RPMI-8226; RPMI-8226, Leukaemia): 8.74%; inhibition at 10 µM (T-47D; Breast cancer): 17.5%; inhibition at 10 µM (SNB-19; SNB-19, CNS cancer): -3.36%; inhibition at 10 µM (MDA-MB-468; MDA-MB-468, Breast cancer): -13.9%; inhibition at 10 µM (MCF7; [1]): 23.3%; inhibition at 10 µM (HOP-92; [2]): 9.27%; inhibition at 10 µM (U251; U251, CNS cancer): -7.81%; inhibition at 10 µM (MDA-MB-231/ATCC; MDA-MB 231/ATCC, Breast cancer): 13.9%; inhibition at 10 µM (SF-539; SF-539, CNS cancer): -6.63%; inhibition at 10 µM (CAKI-1; CAKI-1, Renal cancer): 18.8%
